Some results are limits rather than exact numbers.

We go through seven compounds from patent publication US12655130B2 (ASSEMBLY BIOSCIENCES, INC., priority 2020, dated 2026).

The subject of this experiment is HBV viral load (viral production from HepAD38 cells). Put plainly: Activity of test compounds on viral production from HepAD38 cells (viral load by qPCR of HBV core sequence). It is filed as cell-based. As to conditions: Hepatitis B virus, HePAD38, 120 h, viral load lowering, 5 days, qPCR of supernatant, read-out: VL HepAD38 EC50 range. The essentials: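 EC50 and CC50 come from four-parameter logistic fits: HBV core DNA in supernatant by TaqMan qPCR against DNA standards, normalised to DMSO controls, and cell viability by CellTiter-Glo. Cells were plated at 50,000/well without tetracycline (2% FBS) and exposed to compounds (highest 10 μM) for 5 days, 37 °C.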
(In qPCR the cycle at which signal appears reflects the starting amount.)

In the case of `Cc1cc(C2(O)CC3CC(c4ncn(C)c4C(=O)Nc4ccc(F)c(Cl)c4)CC3C2)[nH]n1` (stereo not shown) [Example 144, N-(3-Chloro-4-fluorophenyl)-4-(5-hydroxy-5-(3-methyl-1H-pyrazol-5-yl)octahydropentalen-2-yl)-1-methyl-1H-imidazole-5-carboxamide], the concentration giving a half-maximal response (EC50) was under 10 nM. The result for `Cc1nc(C2CC3CC(O)(c4ccnn4C(C)C)CC3C2)c(C(=O)Nc2ccc(F)c(Cl)c2)n1C` (stereo not shown) [Example 140, N-(3-Chloro-4-fluorophenyl)-4-(5-hydroxy-5-(1-isopropyl-1H-pyrazol-5-yl)octahydropentalen-2-yl)-1,2-dimethyl-1H-imidazole-5-carboxamide] reads under 10 nM; that for `CC(C)c1cc(C2(O)CC3CC(c4ncn(C)c4C(=O)Nc4ccc(F)c(Cl)c4)CC3C2)n(C)n1` (stereo not shown) [Example 94, N-(3-chloro-4-fluorophenyl)-4-(5-hydroxy-5-(3-isopropyl-1-methyl-1H-pyrazol-5-yl)octahydropentalen-2-yl)-1-methyl-1H-imidazole-5-carboxamide], under 10 nM. The result for `CC(C)n1nc([N+](=O)[O-])cc1C1(O)CC2CC(c3ncn(C)c3C(=O)Nc3ccc(F)c(Cl)c3)CC2C1` (stereo not shown) [Example 164, N-(3-Chloro-4-fluorophenyl)-4-(5-hydroxy-5-(1-isopropyl-3-nitro-1H-pyrazol-5-yl)octahydropentalen-2-yl)-1-methyl-1H-imidazole-5-carboxamide] reads under 10 nM; that for `Cn1cnc(C2CC3CC(O)(c4c(F)c(O)nn4C)CC3C2)c1C(=O)Nc1ccc(F)c(Cl)c1` (stereo not shown) [Example 61, N-(3-Chloro-4-fluorophenyl)-4-(5-(4-fluoro-3-hydroxy-1-methyl-1H-pyrazol-5-yl)-5-hydroxyoctahydropentalen-2-yl)-1-methyl-1H-imidazole-5-carboxamide], under 10 nM; that for `CCC(C)n1nc(N)cc1C1(O)CC2CC(c3ncn(C)c3C(=O)Nc3ccc(F)c(Cl)c3)CC2C1` (stereo not shown) [Example 161, 4-(5-(3-Amino-1-(sec-butyl)-1H-pyrazol-5-yl)-5-hydroxyoctahydropentalen-2-yl)-N-(3-chloro-4-fluorophenyl)-1-methyl-1H-imidazole-5-carboxamide], under 10 nM. The result for `CCn1cc(C2(O)CC3CC(c4ncn(C)c4C(=O)Nc4ccc(F)c(Cl)c4)CC3C2)c(C(F)F)n1` (stereo not shown) [Example 162, N-(3-Chloro-4-fluorophenyl)-4-(5-(3-(difluoromethyl)-1-ethyl-1H-pyrazol-4-yl)-5-hydroxyoctahydropentalen-2-yl)-1-methyl-1H-imidazole-5-carboxamide] reads under 10 nM.

As a reminder, the EC50 is the concentration at which the effect is half-maximal.
